Structures can show the parent of a compound that is named as a salt.
Biological target: T1, Activated human C1s (Homo sapiens, UniProt P09871)
T1 construct: purchased Calbiochem (La Jolla, Calif.)
T1 sequence (P09871 438-688 limits assumed): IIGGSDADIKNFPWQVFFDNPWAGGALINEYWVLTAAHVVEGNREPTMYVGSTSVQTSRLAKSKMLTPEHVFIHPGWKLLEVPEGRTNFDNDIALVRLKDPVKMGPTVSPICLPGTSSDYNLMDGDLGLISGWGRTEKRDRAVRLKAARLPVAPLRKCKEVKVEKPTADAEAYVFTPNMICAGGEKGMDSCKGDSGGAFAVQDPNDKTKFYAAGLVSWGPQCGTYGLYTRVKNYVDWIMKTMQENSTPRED
T1 sequence (P09871 16-437 partner limits assumed): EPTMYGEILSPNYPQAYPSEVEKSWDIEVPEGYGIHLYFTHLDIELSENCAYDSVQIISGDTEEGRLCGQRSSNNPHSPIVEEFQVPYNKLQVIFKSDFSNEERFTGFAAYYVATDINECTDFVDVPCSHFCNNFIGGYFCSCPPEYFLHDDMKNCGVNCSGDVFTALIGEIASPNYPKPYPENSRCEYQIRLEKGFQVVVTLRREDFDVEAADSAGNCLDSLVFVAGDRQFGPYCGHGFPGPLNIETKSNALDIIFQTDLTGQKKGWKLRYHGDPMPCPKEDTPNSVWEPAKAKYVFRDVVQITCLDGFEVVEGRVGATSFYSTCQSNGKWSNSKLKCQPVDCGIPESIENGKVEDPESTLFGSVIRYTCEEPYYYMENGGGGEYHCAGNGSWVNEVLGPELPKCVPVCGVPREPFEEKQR
Assay: In vitro inhibition of C1s (Ki determination, C1s-catalyzed hydrolysis of Z-Gly-Arg-S-Bzl, DTNB readout)
Assay type: biochemical
Settings: substrate Z-Gly-Arg-S-Bzl 45 μM, DTNB 200 μM, C1s 2.3 nM, pH 7.5, 37° C., absorbance at 405 nm

SMILES | Ki [nM]
CSc1sc(C(=N)N)cc1S(=O)(=O)c1cccc(-c2c(C)cc(Cl)cc2NC(=O)CCCS(C)(=O)=O)c1 [Example 135, N-[3′-(5-Carbamimidoyl-2-methylsulfanyl-thiophene-3-sulfonyl)-4-chloro-6-methyl-biphenyl-2-yl]-4-methanesulfonyl-butyramide trifluoroacetate] | 6 to 23
CSc1sc(C(=N)N)cc1S(=O)(=O)c1cccc(-c2c(C)cc(NC(=N)N)cc2NC(=O)NCCCCS(C)(=O)=O)c1 [Example 184, 4-{4′-Guanidino-2′-[3-(4-methanesulfonyl-butyl)-ureido]-6′-methyl-biphenyl-3-sulfonyl}-5-methylsulfanyl-thiophene-2-carboxamidine trifluoroacetate] | 6 to 23
COc1cc(C)c(-c2cccc(S(=O)(=O)c3cc(C(=N)N)sc3SC)c2)c(COCC(=O)O)c1 [Example 192, [3′-(5-Carbamimidoyl-2-methylsulfanyl-thiophene-3-sulfonyl)-4-methoxy-6-methyl-biphenyl-2-ylmethoxy]-acetic acid trifluoroacetate] | 6 to 23
CSc1sc(C(=N)N)cc1S(=O)(=O)c1cccc(-c2c(C)cccc2NC(=O)NCCNS(=O)(=O)c2ccccc2)c1 [Example 194, 4-{2′-[3-(2-Benzenesulfonylamino-ethyl)-ureido]-6′-methyl-biphenyl-3-sulfonyl}-5-methylsulfanyl-thiophene-2-carboxamidine trifluoroacetate] | 6 to 23
CSc1sc(C(=N)N)cc1S(=O)(=O)c1cccc(-c2c(C)cccc2NC(=O)NCCNS(C)(=O)=O)c1 [Example 195, 4-{2′-[3-(2-Methanesulfonylamino-ethyl)-ureido]-6′-methyl-biphenyl-3-sulfonyl}-5-methylsulfanyl-thiophene-2-carboxamidine trifluoroacetate] | 6 to 23
CSc1sc(C(=N)N)cc1S(=O)(=O)c1cccc(-c2c(C)cccc2NC(=O)NCCCc2ccccc2)c1 [Example 203, 4-{6′-Methyl-2′-[3-(3-phenyl-propyl)-ureido]-biphenyl-3-sulfonyl}-5-methylsulfanyl-thiophene-2-carboxamidine trifluoroacetate] | 6 to 23
CSc1sc(C(=N)N)cc1S(=O)(=O)c1cccc(-c2c(C)cccc2NC(=O)NCCc2c[nH]c3ccccc23)c1 [Example 207, 4-(2′-{3-[2-(1H-Indol-3-yl)-ethyl]-ureido}-6′-methyl-biphenyl-3-sulfonyl)-5-methylsulfanyl-thiophene-2-carboxamidine trifluoroacetate] | 6 to 23
CSc1sc(C(=N)N)cc1S(=O)(=O)c1cccc(-c2c(C)cccc2NC(=O)CCCS(N)(=O)=O)c1 [Example 210, N-[3′-(5-Carbamimidoyl-2-methylsulfanyl-thiophene-3-sulfonyl)-6-methyl-biphenyl-2-yl]-4-sulfamoyl-butyramide trifluoroacetate] | 6 to 23
CSc1sc(C(=N)N)cc1S(=O)(=O)c1cccc(-c2c(C)cccc2NC(=O)CCCCCCCCCCN)c1 [Example 211, 11-Amino-undecanoic acid [3′-(5-carbamimidoyl-2-methylsulfanyl-thiophene-3-sulfonyl)-6-methyl-biphenyl-2-yl]-amide bistrifluoroacetate] | 6 to 23
COC(=O)CCSCC(=O)Nc1cc(NC(=N)N)cc(C)c1-c1cccc(S(=O)(=O)c2cc(C(=N)N)sc2SC)c1 [Example 238, 3-{[3′-(5-Carbamimidoyl-2-methylsulfanyl-thiophene-3-sulfonyl)-4-guanidino-6-methyl-biphenyl-2-ylcarbamoyl]-methylsulfanyl}-propionic acid methyl ester bis-trifluoroacetate] | 6 to 23
CSc1sc(C(=N)N)cc1S(=O)(=O)c1cccc(-c2c(C)cc(NC(=N)N)cc2NC(=O)CSCCC(=O)O)c1 [Example 239, 3-{[3′-(5-Carbamimidoyl-2-methylsulfanyl-thiophene-3-sulfonyl)-4-guanidino-6-methyl-biphenyl-2-ylcarbamoyl]-methylsulfanyl}-propionic acid bis-trifluoroacetate] | 6 to 23
CSc1sc(C(=N)N)cc1S(=O)(=O)c1cccc(-c2c(C)cccc2NC(=O)NCCCCCC(=O)O)c1 [Example 240, 6-{3-[3′-(5-Carbamimidoyl-2-methylsulfanyl-thiophene-3-sulfonyl)-6-methyl-biphenyl-2-yl]-ureido}-hexanoic acid trifluoroacetate] | 6 to 23
CSc1sc(C(=N)N)cc1S(=O)(=O)c1cccc(-c2c(C)cccc2NC(=O)NCCc2ccccc2)c1 [Example 242, 4-[2′-Methyl-6′-(3-phenethyl-ureido)-biphenyl-3-sulfonyl]-5-methylsulfanyl-thiophene-2-carboxamidine trifluoroacetate] | 6 to 23
CSc1sc(C(=N)N)cc1S(=O)(=O)c1cccc(-c2c(C)cccc2NC(=O)CSCC(N)=O)c1 [Example 246, 2-{[3′-(5-Carbamimidoyl-2-methylsulfanyl-thiophene-3-sulfonyl)-6-methyl-biphenyl-2-ylcarbamoyl]-methylsulfanyl}-acetamide trifluoroacetate] | 6 to 23

Further lines, results first:

Ki [nM] | SMILES
6 to 23 | CSc1sc(C(=N)N)cc1S(=O)(=O)c1cnc(N)c(-c2ccccc2C)c1 [Example 121, 4-(6-Amino-5-o-tolyl-pyridine-3-sulfonyl)-5-methylsulfanyl-thiophene-2-carboxamidine]
6 to 23 | CCCCCCNC(=N)Nc1ccc(-c2cccc(S(=O)(=O)c3cc(C(=N)N)sc3SC)c2)c(C)c1 [Example 136, 4-[4′-(N′-Hexyl-guanidino)-2′-methyl-biphenyl-3-sulfonyl]-5-methylsulfanyl-thiophene-2-carboxamidine trifluoroacetate]
6 to 23 | CSc1sc(C(=N)N)cc1S(=O)(=O)c1cccc(-c2ccc(NC(=N)NCCCS(C)(=O)=O)cc2C)c1 [Example 171, 4-{4′-[N′-(3-Methanesulfonyl-propyl)-guanidino]-2′-methyl-biphenyl-3-sulfonyl}-5-methylsulfanyl-thiophene-2-carboxamidine trifluoroacetate]
6 to 23 | CSc1sc(C(=N)N)cc1S(=O)(=O)c1cccc(-c2ccc(NC(=N)NCCCCCS(C)(=O)=O)cc2C)c1 [Example 173, 4-{4′-[N′-(5-Methanesulfonyl-pentyl)-guanidino]-2′-methyl-biphenyl-3-sulfonyl}-5-methylsulfanyl-thiophene-2-carboxamidine trifluoroacetate]
6 to 23 | CSc1sc(C(=N)N)cc1S(=O)(=O)c1cccc(-c2c(C)cccc2NC(=O)CCCS(C)(=O)=O)c1 [Example 209, N-[3′-(5-Carbamimidoyl-2-methylsulfanyl-thiophene-3-sulfonyl)-6-methyl-biphenyl-2-yl]-4-methanesulfonyl-butyramide trifluoroacetate]
6 to 23 | CSc1sc(C(=N)N)cc1S(=O)(=O)c1cccc(-c2ccc(F)cc2C)c1 [Example 219, 4-(4′-Fluoro-2′-methyl-biphenyl-3-sulfonyl)-5-methylsulfanyl-thiophene-2-carboxamidine trifluoroacetate]
6 to 23 | CSc1sc(C(=N)N)cc1S(=O)(=O)c1cccc(-c2ccc(N)cc2C)c1 [Example 220, 4-(4′-Amino-2′-methyl-biphenyl-3-sulfonyl)-5-methylsulfanyl-thiophene-2-carboxamidine bis-trifluoroacetate]
6 to 23 | CSc1sc(C(=N)N)cc1S(=O)(=O)c1cccc(-c2c(C)cc(O)cc2C)c1 [Example 224, 4-(4′-Hydroxy-2′,6′-dimethyl-biphenyl-3-sulfonyl)-5-methylsulfanyl-thiophene-2-carboxamidine trifluoroacetate]
6 to 23 | CSc1sc(C(=N)N)cc1S(=O)(=O)c1cccc(-c2ccc(NC(N)=O)cc2C)c1 [Example 228, 5-Methylsulfanyl-4-(2 ′-methyl-4′-ureido-biphenyl-3-sulfonyl)-thiophene-2-carboxamidine trifluoroacetate]
6 to 23 | CSc1sc(C(=N)N)cc1S(=O)(=O)c1cccc(-c2ccc(NC(=O)[C@@H](N)CCC(=O)O)cc2C)c1 [Example 231, 4-Amino-4-[3′-(5-carbamimidoyl-2-methylsulfanyl-thiophene-3-sulfonyl)-2-methyl-biphenyl-4-ylcarbamoyl]-butyric acid bis-trifluoroacetate]
6 to 23 | CSc1sc(C(=N)N)cc1S(=O)(=O)c1cccc(-c2ccc(NC3=NCCN3)cc2C)c1 [Example 233, 4-[4′-(4,5-Dihydro-1H-imidazol-2-ylamino)-2′-methyl-biphenyl-3-sulfonyl]-5-methylsulfanyl-thiophene-2-carboxamidine bis-trifluoroacetate]
6 to 23 | CSc1sc(C(=N)N)cc1S(=O)(=O)c1cccc(-c2c(C)cc(NC(=N)N)cc2[N+](=O)[O-])c1 [Example 236, 4-(4′-Guanidino-2′-methyl-6′-nitro-biphenyl-3-sulfonyl)-5-methylsulfanyl-thiophene-2-carboxamidine bis-trifluoroacetate]
6 to 23 | CSc1sc(C(=N)N)cc1S(=O)(=O)c1cccc(-c2c(C)cc(NC(=N)N)cc2N)c1 [Example 237, 4-(6′-Amino-4′-guanidino-2′-methyl-biphenyl-3-sulfonyl)-5-methylsulfanyl-thiophene-2-carboxamidine bis-trifluoroacetate]
